Reference: patent EP3889132B1, “MONOACYLGLYCEROL LIPASE (MAGL) INHIBITORS” (Università di Pisa, priority 2020, dated 2021)

Legend:
[1] = molecular target: T1, recombinant human MAGL enzyme (Homo sapiens, UniProt Q99685); experiment: In vitro screening of activity on the recombinant human MAGL enzyme (4-NPA substrate, absorbance 405 nm); format: biochemical; conditions: substrate 4-NPA, room temperature, 30 minutes
T1 construct: purchased Cayman Chemical 10007812
T1 sequence (Q99685 1-303): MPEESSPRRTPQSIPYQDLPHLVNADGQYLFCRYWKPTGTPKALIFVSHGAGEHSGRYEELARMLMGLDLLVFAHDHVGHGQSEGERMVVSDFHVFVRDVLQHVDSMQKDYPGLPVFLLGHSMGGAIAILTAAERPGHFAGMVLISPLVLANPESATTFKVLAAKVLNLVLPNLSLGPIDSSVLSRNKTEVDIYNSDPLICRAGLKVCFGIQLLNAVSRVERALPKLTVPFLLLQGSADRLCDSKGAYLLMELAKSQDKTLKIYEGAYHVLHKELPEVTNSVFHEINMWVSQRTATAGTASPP
Description: The compound 4-nitrophenyl acetate (4-NPA Merck-Sigma Aldrich, 8430750025) was used as a substrate for the recombinant human MAGL enzyme (Cayman Chemical, 10007812). IC50 values were generated in microplates containing 96 wells. The catalytic reaction was carried out at room temperature, at a final volume of 200 µL in 10 mM Tris buffer at pH 7.2 containing 1 mM EDTA and 0.1 mg/ml BSA. A total of 150 µL of 4-NPA 133.3 µM in ethanol was added to 10 µL of DMSO containing the appropriate amount of compound (500 - 0.00256 µM). The reaction began with the addition of 40 µL of the MAGL enzyme (11 ng/well). […] After the reaction continued for 30 minutes, the absorbance values were then measured using a Victor X3 (PerkinElmer®) microplate reader at a wavelength of 405 nm. Two other analyzes were also performed in parallel: one reaction without compounds and the second containing neither compound nor enzyme. […] The IC50 values were calculated from the experimental data (absorbance) through the construction of dose-response curves.

[2] = system: HCT116; experiment: Cell viability assay (CellTiter-Glo) HCT116; format: cell-based; conditions: Homo sapiens, HCT-116; cell viability after 96 hours; read-out: IC50 (µM, mean ± SD) HCT116
Description: (§1) The following tumor cell lines, MDA-MB-231 (Cell Biolabs AKR-231), HCT116 (ATCC® CCL-247), CAOV3 (ATCC® HTB-75), OVCAR3 (ATCC® HTB-161) and SKOV3 (ATCC® HTB-77) were kept at 37 °C in a humidified atmosphere containing 5% CO2 according to the supplier. Cells (5 x 10^2) were plated in 96-well culture plates. The day after plating, the compounds were dissolved in DMSO and added at different concentrations to the medium (final DMSO concentration < 5%). The compounds were added to the cell culture at a concentration between 200 and 0.02 µM. Cell viability was measured after 96 hours with the CellTiter-Glo® Luminescent Cell Viability Assay kit in accordance with the supplier Promega (G7571) with a Tecan M1000 instrument. IC50 values were calculated from dose-response curves. The means were obtained from the triplicates (Table 2). Table 2. Cell viability inhibition activity (IC50, µM) of compound 15.

[3] = system: SKOV3; experiment: Cell viability assay (CellTiter-Glo) SKOV3; format: cell-based; conditions: Homo sapiens, SK-OV-3; cell viability after 96 hours; read-out: IC50 (µM, mean ± SD) SKOV3
Description: as §1

[4] = molecular target: T1, recombinant human MAGL enzyme; experiment: Enzymatic kinetics experiments with scalar concentrations of 4-NPA (Michaelis-Menten, mixed-model inhibition fit); format: biochemical; conditions: compound 1-0.125 µM, 4-NPA 15-1400 µM
Description: In enzymatic kinetics experiments, compound 15 was tested in the presence of scalar concentrations of […]. It was added in staggered amounts (concentration range = 1-0.125 µM in DMSO) to a reaction mix containing staggered concentrations of 4-NPA (15-1400 µM in ethanol). Finally, the buffer solution containing the recombinant human MAGL enzyme (11 ng/well) was added. The enzymatic activity was measured at room temperature by recording the increase in absorbance corresponding to the increase in the concentration of […] using a Victor X3 microplate reader (PerkinElmer®). The absorbance was converted into enzymatic rate by making appropriate use of positive and negative controls. The experimental data were analyzed by […] regression analysis applying the inhibition fit of the mixed model (Fig. 1).

[5] = molecular target: T1, recombinant human MAGL enzyme; experiment: MAGL dilution assay with the recombinant human MAGL enzyme; format: biochemical; conditions: 20 µM vs 40X dilution (final 0.5 µM) vs 0.5 µM (Fig. 3)
Description: […] The mixture containing the inhibitor and the enzyme was then diluted 40 times with the buffer solution. After 15 minutes of incubation, the reaction was started in a 160 µL aliquot with the addition of 40 µL of 4-NPA 500 µM in buffer and the enzyme activity was measured according to the procedure described above.
The % of inhibition of the MAGL enzyme was calculated from the measured absorbance. The absorbance measured in the presence of only enzyme with vehicle and without compound was considered as absence of inhibition (positive control), while the absorbance measured in the wells with only vehicle without enzyme and without compound was considered as 100% inhibition (negative control). Intermediate absorbance values with respect to these two extremes indicate enzymatic inhibition and are calculated as the difference between the absorbance value in the well with the compound and the absorbance value of the negative control, all scaled as a percentage considering as the maximum value the negative control and minimum value of minimum inhibition the positive control.
In dilution experiments, if compound 15 were an irreversible inhibitor, its inhibitory potency should not decrease upon dilution.

[6] = system: MDA-MB-231; experiment: Cell viability assay (CellTiter-Glo) MDA-MB-231; format: cell-based; conditions: Homo sapiens, cell viability after 96 hours, read-out: IC50 (µM, mean ± SD) MDA-MB-231
Description: as §1

[7] = system: CAOV3; experiment: Cell viability assay (CellTiter-Glo) CAOV3; format: cell-based; conditions: Homo sapiens, Caov-3; cell viability after 96 hours; read-out: IC50 (µM, mean ± SD) CAOV3
Description: as §1

[8] = system: OVCAR3; experiment: Cell viability assay (CellTiter-Glo) OVCAR3; format: cell-based; conditions: Homo sapiens, OVCAR-3; cell viability after 96 hours; read-out: IC50 (µM, mean ± SD) OVCAR3
Description: as §1

IC50 [1] [µM]	SMILES	other results
1.1 ± 0.1	O=C(CCCCc1ccccc1)Nc1cc(-c2ccc(O)c(F)c2)ccc1O [Compound 16, N-(3'-Fluoro-4,4'-dihydroxy-[1,1'-biphenyl]-3-yl)-5-phenylpentanamide]	–
6.9 ± 0.4	O=C(Nc1cc(-c2ccc(O)c(F)c2)ccc1O)c1ccccc1 [Compound 12, N-(3'-Fluoro-4,4'-dihydroxy-[1,1'-biphenyl]-3-yl)benzamide]	–
1.9 ± 0.1	O=C(Cc1cccc2ccccc12)Nc1cc(-c2ccc(O)c(F)c2)ccc1O [Compound 17, N-(3'-Fluoro-4,4'-dihydroxy-[1,1'-biphenyl]-3-yl)-2-(naphtalen-1-yl)acetamide]	–
0.34 ± 0.01	O=C(CCCc1ccccc1)Nc1cc(-c2ccc(O)c(F)c2)ccc1O [Compound 15, N-(3'-Fluoro-4,4'-dihydroxy-[1,1'-biphenyl]-3-yl)-4-phenylbutanamide]	IC50 [2]: 14 ± 2 µM; IC50 [3]: 16 ± 2 µM; Ki [4]: 0.146 µM; Inhibition mechanism from percentage of inhibition after 40X dilution [5]: reversible inhibition; IC50 [6]: 75 ± 6 µM; IC50 [7]: 34 ± 4 µM; IC50 [8]: 75 ± 4 µM
2 ± 0.1	O=C(CCc1ccccc1)Nc1cc(-c2ccc(O)c(F)c2)ccc1O [Compound 14, N-(3'-Fluoro-4,4'-dihydroxy-[1,1'-biphenyl]-3-yl)-3-phenylpropanamide]	–
5.1 ± 0.5	O=C(Cc1ccccc1)Nc1cc(-c2ccc(O)c(F)c2)ccc1O [Compound 13, N-(3'-Fluoro-4,4'-dihydroxy-[1,1'-biphenyl]-3-yl)-2-phenylacetamide]	–
> 20	CC(C)(C)C(=O)Nc1cc(-c2ccc(O)c(F)c2)ccc1O [Compound 11, N-(3'-Fluoro-4,4'-dihydroxy-[1,1'-biphenyl]-3-yl)pivalamide]	–

The next lines start with the compound.

SMILES	IC50 [1] [µM]	other results
CCCCCCCCCCCCCCCC(=O)Nc1cc(-c2ccc(O)c(F)c2)ccc1O [Compound 9, N-(3'-Fluoro-4,4'-dihydroxy-[1,1'-biphenyl]-3-yl)palmitamide]	> 20	–
CCCCCCCCCCCCCC(=O)Nc1cc(-c2ccc(O)c(F)c2)ccc1O [Compound 8, N-(3'-Fluoro-4,4'-dihydroxy-[1,1'-biphenyl]-3-yl)tetradecanamide]	2.5 ± 0.4	–
CCCCCCC(=O)Nc1cc(-c2ccc(O)c(F)c2)ccc1O [Compound 3, N-(3'-Fluoro-4,4'-dihydroxy-[1,1'-biphenyl]-3-yl)eptanamide]	1.1 ± 0.1	–
CCCCCCCCCCCC(=O)Nc1cc(-c2ccc(O)c(F)c2)ccc1O [Compound 7, N-(3'-Fluoro-4,4'-dihydroxy-[1,1'-biphenyl]-3-yl)dodecanamide]	2.8 ± 0.3	–
CCCCC(=O)Nc1cc(-c2ccc(O)c(F)c2)ccc1O [Compound 1, N-(3'-Fluoro-4,4'-dihydroxy-[1,1'-biphenyl]-3-yl)pentanamide]	7.6 ± 0.1	–
CCCCCC(=O)Nc1cc(-c2ccc(O)c(F)c2)ccc1O [Compound 2, N-(3'-Fluoro-4,4'-dihydroxy-[1,1'-biphenyl]-3-yl)hexanamide]	3.2 ± 0.2	–
CC(C)C(=O)Nc1cc(-c2ccc(O)c(F)c2)ccc1O [Compound 10, N-(3'-Fluoro-4,4'-dihydroxy-[1,1'-biphenyl]-3-yl)isobutyramide]	19.7 ± 1	–
CCCCCCCCCC(=O)Nc1cc(-c2ccc(O)c(F)c2)ccc1O [Compound 6, N-(3'-Fluoro-4,4'-dihydroxy-[1,1'-biphenyl]-3-yl)decanamide]	1.1 ± 0.1	–
CCCCCCCCC(=O)Nc1cc(-c2ccc(O)c(F)c2)ccc1O [Compound 5, N-(3'-Fluoro-4,4'-dihydroxy-[1,1'-biphenyl]-3-yl)nonanamide]	2.9 ± 0.1	–
CCCCCCCC(=O)Nc1cc(-c2ccc(O)c(F)c2)ccc1O [Compound 4, N-(3'-Fluoro-4,4'-dihydroxy-[1,1'-biphenyl]-3-yl)octanamide]	0.61 ± 0.03	–
